From patent US20100298141A1, “SUBSTITUTED PYRIDINE N-OXIDE HERBICIDES” (E. I. DU PONT DE NEMOURS AND COMPANY, priority 2007, published 2010)

Legend:
corn (ZEAMD) = test: Test H preemergence mixtures of compound 2 with crop safeners; assay type: in vivo, Zea mays cv. ‘Pioneer 33G26’; parameters: key to ZEAMD Obsd. (observed effect): observed % effect, visually evaluated vs controls
Description: (§1) Seeds of test plants consisting of winter wheat (TRZAW, Triticum aestivum), corn (ZEAMD, Zea mays cv. ‘Pioneer 33G26’), giant foxtail (SETFA, Setaria faberi), and Italian ryegrass (LOLMU, Lolium multiflorum) were planted into a blend of loam soil and sand and treated preemergence with a directed soil spray using test chemicals formulated in a non-phytotoxic solvent mixture that included a surfactant. Seeds of small-seeded species were planted about 1 cm deep; larger seeds were planted about 2.5 cm deep. […] Balanced fertilizer was applied through the watering system. Treatments consisted of Compound 2 and the above mentioned safeners alone and in combination using a spray volume of 457 L/ha. Each treatment was replicated four times. Treated plants and controls were maintained in a greenhouse for 14 to 21 days, after which time all species were compared to controls and visually evaluated. […] A dash (-) response means no test result. Colby's Equation was used to determine the herbicidal effects expected from the mixtures. Colby's Equation (Colby, S. […] wherein • Pa+b is the percentage effect of the mixture expected from additive contribution of the individual components, • Pa is the observed percentage effect of the first active ingredient at the same use rate as in the mixture, and • Pb is the observed percentage effect of the second active ingredient at the same use rate as in the mixture.

winter wheat (TRZAW) [1] = test: Test I preemergence mixtures of compound 2 with crop safeners; assay type: in vivo, Triticum aestivum; details: alone
Description: (§2) Seeds of test plants consisting of winter wheat (TRZAW, Triticum aestivum), corn (ZEAMD, Zea mays cv. ‘Pioneer 33G26’), wild oat (AVEFA, Avena fatua), and Italian ryegrass (LOLMU, Lolium multiflorum) were planted into a blend of loam soil and sand and treated preemergence with a directed soil spray using test chemicals formulated in a non-phytotoxic solvent mixture that included a surfactant. Seeds of small-seeded species were planted about 1 cm deep; larger seeds were planted about 2.5 cm deep. […] Balanced fertilizer was applied through the watering system. Treatments consisted of Compound 2 and the above mentioned safeners alone and in combination using a spray volume of 457 L/ha. Each treatment was replicated four times. Treated plants and controls were maintained in a greenhouse for 14 to 21 days, after which time all species were compared to controls and visually evaluated. […] A dash (-) response means no test result. Colby's Equation was used to determine the herbicidal effects expected from the mixtures. Colby's Equation (Colby, S. […] Pa+b=Pa+Pb−(PaPb/100) wherein • Pa+b is the percentage effect of the mixture expected from additive contribution of the individual components, • Pa is the observed percentage effect of the first active ingredient at the same use rate as in the mixture, and • Pb is the observed percentage effect of the second active ingredient at the same use rate as in the mixture.

Italian ryegrass (LOLMU) = test: as above; assay type: in vivo, Lolium multiflorum; details: alone
Description: as §2

winter wheat (TRZAW) [2] = test: Test J preemergence mixtures of Compound 2 with crop safeners; assay type: in vivo, Triticum aestivum; parameters: key to TRZAW Obsd. (observed effect): observed % herbicidal effect
Description: as §1, with “aestivum) and” for “aestivum),”, “33G26’)” for “33G26’), giant foxtail (SETFA, Setaria faberi), and Italian ryegrass (LOLMU, Lolium multiflorum)”, “surfactant.” for “surfactant. Seeds of small-seeded species were planted about 1 cm deep; larger seeds were planted about 2.5 cm deep.”, “times.” for “times. Treated plants and controls were maintained in a greenhouse for 14 to 21 days, after which time all species were compared to controls and visually evaluated.”, “and” for “and •”

ducksalad = test: Test E flooded paddy test; assay type: in vivo, Heteranthera limosa; details: Flood, after 21 days, scale 0 to 100
Description: (§3) Three plastic pots (ca. 16-cm diameter) per rate were partially filled with sterilized Tama silt loam soil comprising a 35:50:15 ratio of sand, silt and clay and 2.6% organic matter. Separate plantings for each of the three pots were as follows. Seeds from the U.S. of ducksalad (Heteranthera limosa), smallflower umbrella sedge (Cyperus difformis) and purple […] coccinea), were planted into one 16-cm pot for each rate. […] Seeds from the U.S. of barnyardgrass (Echinochloa crus-galli), late watergrass (Echinochloa oryzicola), early watergrass (Echinochloa oryzoides) and junglerice (Echinochloa colona) were planted into one 16-cm pot for each rate. Plantings were sequential so that crop and weed species were at the 2.0 to 2.5-leaf stage at time of treatment. Potted plants were grown in a greenhouse with day/night temperature settings of 30/27° C., and supplemental balanced lighting was provided to maintain a 16-hour photoperiod. Test pots were maintained in the greenhouse until test completion. At time of treatment, test pots were flooded to 3 cm above the soil surface, treated by application of test compounds directly to the paddy water, and then maintained at that water depth for the duration of the test. Effects of treatments on rice and weeds were visually evaluated by comparison to untreated controls after 21 days. […] A dash (-) response means no test result.

[3] = system: smallflower umbrella sedge; test: Test E flooded paddy test; assay type: in vivo, Cyperus difformis; details: Flood, after 21 days, scale 0 to 100
Description: as §3

purple redstem = test: Test E flooded paddy test; assay type: in vivo, Ammannia coccinea; details: Flood, after 21 days, scale 0 to 100
Description: as §3

[4] = system: water seeded rice seedlings; test: Test E flooded paddy test; assay type: in vivo, Oryza sativa cv. ‘Japonica -M202’; details: Flood, after 21 days, scale 0 to 100
Description: as §3

junglerice = test: Test E flooded paddy test; assay type: in vivo, Echinochloa colona; details: Flood, after 21 days, scale 0 to 100
Description: as §3

Row | SMILES | Plant response rating, Ducksalad (ducksalad; 64 g ai/ha) | Plant response rating, Ducksalad (ducksalad; 125 g ai/ha) | Plant response rating, Ducksalad (ducksalad; 250 g ai/ha) | Plant response rating, Sedge, Umbrella ([3]; 64 g ai/ha) | Plant response rating, Sedge, Umbrella ([3]; 125 g ai/ha) | Plant response rating, Sedge, Umbrella ([3]; 250 g ai/ha) | Plant response rating, Redstem (purple redstem; 64 g ai/ha) | Plant response rating, Redstem (purple redstem; 125 g ai/ha) | Plant response rating, Redstem (purple redstem; 250 g ai/ha) | Plant response rating, Rice, Waterseeded ([4]; 64 g ai/ha) | Plant response rating, Rice, Waterseeded ([4]; 125 g ai/ha) | Plant response rating, Junglerice (junglerice; 64 g ai/ha) | Plant response rating, Junglerice (junglerice; 125 g ai/ha) | Plant response rating, Junglerice (junglerice; 250 g ai/ha) | further results
1 | Cc1cc[n+]([O-])c(S(=O)(=O)Cc2c(C(F)(F)F)nn(C)c2OC(F)F)c1 [Compound 2] | – | – | – | – | – | – | – | – | – | – | – | – | – | – | Plant response rating ZEAMD Obsd. (corn (ZEAMD); Cmpd 2 alone 125 g a.i./ha, scale 0 to 100, mean of four replicates): 15; ZEAMD Obsd. (observed effect) (corn (ZEAMD); Test H, alone, 125 g a.i./ha): 15; TRZAW Obsd. (observed effect) (winter wheat (TRZAW) [1]; 125 g a.i./ha): 93; TRZAW Obsd. (observed effect) (winter wheat (TRZAW) [1]; 250 g a.i./ha): 100; LOLMU Obsd. (observed effect) (Italian ryegrass (LOLMU); 125 g a.i./ha): 48; LOLMU Obsd. (observed effect) (Italian ryegrass (LOLMU); 250 g a.i./ha): 89; TRZAW Obsd. (observed effect) (winter wheat (TRZAW) [2]; Test J, alone, 125 g a.i./ha): 100; Observed effect (Obsd.), TRZAW (winter wheat (TRZAW) [2]; single active ingredient alone at 125 g a.i./ha): 100%
2 | C#CCOc1c(C[S+]([O-])c2cccc[n+]2[O-])c(C(F)(F)F)nn1C (centres unmarked) [Compound 76] | 40 | 40 | 40 | 60 | 90 | 95 | 0 | 40 | 95 | 10 | 10 | 0 | 60 | 75 | Plant response rating, Ducksalad (ducksalad; 500 g ai/ha): 95; Plant response rating, Ducksalad (ducksalad; 1000 g ai/ha): 95; Plant response rating, Sedge, Umbrella ([3]; 500 g ai/ha): 95; Plant response rating, Sedge, Umbrella ([3]; 1000 g ai/ha): 95; Plant response rating, Redstem (purple redstem; 500 g ai/ha): 100; Plant response rating, Redstem (purple redstem; 1000 g ai/ha): 100; Plant response rating, Rice, Waterseeded ([4]; 1000 g ai/ha): 40; Plant response rating, Junglerice (junglerice; 500 g ai/ha): 100; Plant response rating, Junglerice (junglerice; 1000 g ai/ha): 100
3 | Cn1nc(C(F)(F)F)c(C[S+]([O-])c2cc(Br)cc[n+]2[O-])c1Cl (racemic) [Compound 35] | 50 | 60 | 100 | 85 | 85 | 100 | 85 | 85 | 100 | 0 | 20 | 0 | 0 | 40 | Plant response rating, Ducksalad (ducksalad; 16 g ai/ha): 0; Plant response rating, Ducksalad (ducksalad; 32 g ai/ha): 40; Plant response rating, Sedge, Umbrella ([3]; 16 g ai/ha): 0; Plant response rating, Sedge, Umbrella ([3]; 32 g ai/ha): 45; Plant response rating, Redstem (purple redstem; 16 g ai/ha): 0; Plant response rating, Redstem (purple redstem; 32 g ai/ha): 45; Plant response rating, Rice, Waterseeded ([4]; 16 g ai/ha): 0; Plant response rating, Rice, Waterseeded ([4]; 32 g ai/ha): 0; Plant response rating, Rice, Waterseeded ([4]; 250 g ai/ha): 30; Plant response rating, Junglerice (junglerice; 16 g ai/ha): 0; Plant response rating, Junglerice (junglerice; 32 g ai/ha): 0
